melting point [°C] | Structure (SMILES)
90 to 92 | c1ccc(CCCc2nnn[nH]2)cc1
92 to 94 | C=CCNC(=O)c1ccccc1N
143 to 145 | N#CCn1c(CCl)nc2ccccc2c1=O
225 to 227 | Cc1nc(C(=O)O)c2n1CCCC2
188 to 190 | O=C(O)C1CCN(C(=O)c2cccnc2)CC1
51 to 53 | O=S1(=O)CCN1
213 to 215 | CN(C1CCCCC1)S(=O)(=O)c1ccc(C(=O)O)cc1
127 to 129 | Cc1n[nH]c(C)c1C1COCCN1 (stereo unspecified)
154 to 156 | Clc1ccccc1-c1ncn[nH]1
211 to 213 | CC(C)(C)C(=O)Nc1cccc(C(=O)O)c1
89 to 91 | CC(C)(C)C1=NN(c2ccccc2)C(=O)C1=CCl
139 to 141 | O=C(O)CNC(=O)c1ccc(F)cc1F
169 to 171 | COc1ccc(C(N)=O)cc1F
228 to 230 | Cc1n[nH]c(SCC(=O)O)n1
139 to 141 | Nc1sc2c(c1C(=O)c1ccc(Cl)cc1)CCCC2
150 to 152 | Nc1nc(-c2ccccc2)c(-c2ccccc2)o1
39 to 41 | CCC(CC)C(O)CN (stereo unspecified)
203 to 205 | Cc1[nH]c2ccccc2c1C(=O)CBr
151 to 153 | O=C1OC(C(=O)O)Cc2ccccc21 (stereo unspecified)
189 to 191 | N#Cc1cc(F)c(C(=O)O)c(F)c1
60 to 62 | COC(=O)c1ccc(Br)s1
323 to 325 | Nc1cc2c(cc1[N+](=O)[O-])OCC(=O)N2
194 to 196 | O=C(O)c1cc(-c2ccccc2)n(-c2ccccn2)n1
254 to 256 | O=C(O)c1cnn(-c2ccc(Br)cc2)c1

The remaining lines, values behind:

Structure (SMILES) | melting point [°C]
NN1CCN(C(c2ccccc2)c2ccccc2)CC1 | 108 to 110
NCc1cccc(N)n1 | 93 to 95
O=C(Cc1nc2ccccc2[nH]1)NCc1ccccn1 | 176 to 178
CN(C)Cc1ccc(C(=O)NN)o1 | 116 to 118
CC(=O)NCc1ccc(C(=O)CCl)o1 | 125 to 127
NC(CC(=O)O)C1CC1 (stereo unspecified) | 209 to 211
O=C(O)c1cc(F)c(F)cc1C(=O)O | 158 to 160
CCC(=O)CNC(=O)CCl | 81 to 83
N#Cc1ccc(Cl)cc1NCC1CCOC1 (stereo unspecified) | 114 to 116
COc1ccc(C(=O)O)cc1S(=O)(=O)N(C)C | 149 to 151
CC1CCCCC1N1C(=O)C=CC1=O (stereo unspecified) | 40 to 42
CCOc1ccc(Oc2ccccc2N)cc1 | 158 to 160
COc1ccc(Br)c(C(=O)O)c1N | 139 to 141
O=C(O)c1ccc(CN2CCC(O)CC2)cc1 | 219 to 221
COc1ccc(SCCC(=O)O)cc1 | 81 to 83
Cc1n[nH]c(C)c1CCO | 122 to 124
COc1cccc(Nc2nnc(S)s2)c1 | 208 to 210
CCOC(=O)c1c[nH]n(CC(=O)O)c1=N | 195 to 197
O=S(=O)(Cl)c1ccc(OCc2ccccc2)cc1 | 95 to 97
CS(=O)(=O)Nc1ccc(C(=O)O)cc1 | 198 to 200
O=S(=O)(c1ccc(Cl)nc1)N(Cc1ccccc1)Cc1ccccc1 | 106 to 108
CCC(Nc1nnnn1-c1ccccc1)C(=O)O (stereo unspecified) | 149 to 151
CCOC(=O)c1c(C2CC2)csc1N | 70 to 72
CC(=O)c1cnn(-c2ccccc2)c1 | 124 to 126

Structure (SMILES) | melting point [°C]
NC(=O)N1CCN(c2ccccc2F)CC1 | 150 to 152
CC(C)C(Br)C(=O)NC1CCCCCC1 (stereo unspecified) | 119 to 121
CC(C)(C)OC(=O)N1CCC(O)(Cc2cccc(Cl)c2)C1 (stereo unspecified) | 109 to 111
COc1ccccc1Nc1nnc(S)s1 | 182 to 184
Cc1ccc(C(=O)N2CC(C)CC(C)C2)cc1N (stereo unspecified) | 154 to 156
Cc1cccc(N2C(=O)NC(CCC(=O)O)C2=O)c1 (stereo unspecified) | 158 to 160
CC(C)(C)OC(=O)N1CCc2nc(N)sc2C1 | 226 to 228
O=C(O)C1(c2cccc(Br)c2)CCCC1 | 158 to 160
CC(=O)c1sc(-c2ccc(Br)cc2)nc1C | 103 to 105
CC(O)c1ccc(Oc2ccc(Br)cc2)cc1 (stereo unspecified) | 67 to 69
O=C(O)c1cccc(Oc2cccc(C(F)(F)F)c2)c1 | 115 to 117
O=c1[nH]c2ccc(NCc3ccccc3)cc2[nH]1 | 242 to 244
COc1cc(C=O)ccc1OCc1ccc(Br)cc1 | 74 to 76
Nc1ccc2nc(N3CCCC3)sc2c1 | 201 to 203
Cc1ccc(-c2nc(N)sc2C)cc1 | 173 to 175
O=C(O)CSc1ccsc1[N+](=O)[O-] | 196 to 198
COc1cccc(SCC(=O)O)c1 | 60 to 62
CC(C)c1ccc(NCC(=O)N2CCCC2)cc1 | 127 to 129
CC(=O)CC(=O)Nc1cccc(F)c1 | 81 to 83
NC(CN1CCCC1=O)c1cccc(C(F)(F)F)c1 (stereo unspecified) | 76 to 78
CC(C)OC(=O)N1CCC(C(=O)O)(C(F)(F)F)C1 (stereo unspecified) | 98 to 100
CC1CC(C)CN(S(=O)(=O)c2cccc(C(=O)O)c2)C1 (stereo unspecified) | 217 to 219
CC(C)(C)OC(=O)N1CC(OS(C)(=O)=O)C1 | 65 to 67

Reference: a melting point compilation (Tetko et al.)
